From patent publication US20160214926A1, “DIPHENYLOXYALKYLAMINE DERIVATIVES AND ARYLOXYALKYLAMINE DERIVATIVES, PHARMACEUTICAL COMPOSITION, USE OF SAID PHARMACEUTICAL COMPOSITION FOR TREATING, PREVENTING OR INHIBITING CHRONIC PULMONARY INFLAMMATORY DISEASES AND METHOD FOR TREATING OR PREVENTING SUCH DISEASES” (FUNDACAO OSWALDO CRUZ, priority 2013, published 2016) come the findings set out here.

Assay [1] has as its system sodium current in GH3 cells. Briefly: Inhibition of sodium current in GH3 cells, patch clamp. The format is cell-based, rat.
The test system of a further assay is rat tracheal rings. Kind of assay: Inhibition of carbachol-induced contraction of rat tracheal rings (pretreatment). Conditions: for IC50 / Emax: carbachol 10 μM, pretreated 10 minutes; for Emax: mean ± SEM, read-out: EMAX maximum effect of inhibition of carbachol-induced contraction. From the text: In this study, Wistar rats of both sexes were used, weighing between 200 and 250 g, coming from the Laboratory Animal Breeding Center of Fundacdo Oswaldo Cruz. As previously described (Coelho et al., 2008), the animals were sacrificed by exposure to air atmosphere enriched with CO2, Then, the anterior cervical region was opened so that the trachea could be located and removed. It was then transferred to a Petri dish containing Krebs solution with the following composition (mM): NaCl (118), KCl (4.8), CaCl2 (2.5), MgSO4 (1.2), KH2PO4 (1.2), NaHCO3 (24), and glucose (11). The total segment was divided into fragments of about 3 to 4 rings, which were kept in another Petri dish containing Krebs solution. Each fragment was mounted vertically on a 10 ml cuvette with Krebs solution maintained at 37° C. and aerated with carbogen mixture (95% O2 and 5% CO2). The lower rod is fixed to the cuvette base and the top portion was attached to the isometric transducer for measuring the voltage variation of the fragment. The transducer was connected to a device which transforms the voltage variation in digital record. The fragments were subjected to a basal voltage of 1 g and were calibrated, so that the subsequent contractions could be expressed as a percentage of this 1 g voltage. The solutions were introduced inside the cuvettes with the aid of an automatic pipette. The end of the tip was always placed at the same height and position, without touching the muscle. The tracheal rings were initially contracted with 2.5 μM of carbachol. When the contractions reached the plateau, each segment was washed until the total relaxation of the smooth muscle. […] All results were expressed as percentage of the contraction produced by 2.5 μM of carbachol (Coelho et al., 2008).

Assay [2] deals with rat tracheas pre-contracted with carbachol. Briefly: Relaxation of rat trachea pre-contracted with carbachol. The procedure: To assess the potential relaxing effect of the respiratory smooth muscle, rat tracheas were obtained and maintained in an isolated organ bath, as previously described (Coelho et al., 2008). The tracheal segments were then pre-contracted with carbachol at the concentration of 2.5 μM and subjected to increasing concentrations of the tested compounds. All results were expressed as percentage of the contraction produced by carbachol (Coelho et al., 2008).

For assay [3], the system named is mast cells of the RBL-2H3 line. Kind of assay: Antigen-induced degranulation of sensitized mast cells (beta-hexosaminidase release). Conditions: Rattus norvegicus; for Emax: RBL-2H3, DNP-BSA, read-out: EMAX blocking of anaphylactic mast cell degranulation. The format is cell-based. The procedure: For this study, mast cells of the RBL-2H3 line were used, as previously reported (Beaven et al., 1987). […] The cells were then dissociated from the plate using trypsin, centrifuged at 1000 rpm for 5 minutes and distributed in 48-well plates at a density of 125,000 cells per well. The cells were sensitized with monoclonal DNP-specific […] (1 μg/mL) diluted in the same medium used for the cultivation and maintained in the oven for 20 hours. After this period, the cells were washed with Tyrode-gelatin and subjected to treatment with increasing concentrations of […]-209 or mexiletine for 60 minutes. Then, incubation was performed with DNP-BSA (10 ng/ml) for a further period of 60 minutes. After this period, 10 μL of supernatant were collected from each well and added to a 96-well plate. The cells were lysed with 200 μL of 0.1% Triton X-100 and 10 μL of the lysate of each plate were added to the 96-well plate. Then, 40 μL of substrate for the β-hexosaminidase enzyme were added to the samples. After 40 minutes of reaction, reaction stopping solution (0.2 M glycine) was added, generating a colorimetric response, which was measured by spectrophotometer (λ=405 nm).

A further assay deals with tracheal rings. Kind of assay: Anaphylactic (ovalbumin-induced) contraction of tracheal rings from sensitized rats. On the set-up: species or system Wistar rats. As to the method:
In this study, Wistar rats of both sexes were used, weighing between 200 and 250 g, coming from the Laboratory Animal Breeding Center of Fundacdo Oswaldo Cruz. As described previously (da Costa et al., 2007), the animals were sensitized by injection into the dorsal subcutaneous tissue with mixture containing 50 μg of ovalbumin and 5 mg of aluminum hydroxide on days 0 and 7. On the 14th day after the first sensitization, the animals were sacrificed for the removal of the trachea. After a stabilization period of 30 minutes, the tracheal rings were contracted initially with carbachol (2.5 μM) for testing the feasibility and reproducibility of the responses of the preparation.
The tracheal rings were exposed to increasing concentrations of JME-173 (3-30 μM), or carrier (0.9% NaCl) for 30 minutes before the triggering of the contractile response triggered by ovalbumin (100 μg/ml). Salmeterol (30 μM) was used as reference treatment. The responses were expressed as mean±Standard Error of the Mean of at least 5 tracheal segments. All results were expressed as percentage of the contraction produced by 2.5 μM of carbachol.

Assay [4] relates to A/J mice. Briefly: Ovalbumin asthma model: airway hyperreactivity, leukocyte infiltration, cytokines (nebulization). The format is in vivo. The procedure:
Male A/J mice (18-20 g), coming from the Laboratory Animal Breeding Center of Oswaldo Cruz Foundation, were used in the experiments. The animals were previously sensitized with a mixture of ovalbumin (OVA) (50 μg) (Grade V; Sigma, St. Louis, Mo., USA) and aluminum hydroxide (5 mg) administered subcutaneously on day 0 with boost on day 14 (equal suspension administered intraperitoneally). Nasal instillations of OVA (25 μg/25 μl in sterile 0.9% NaCl) were administered on days 14, 21, 28 and 35, with the hyperresponsiveness analysis performed 24 hours after the last challenge. […] That is, the treatments took place after the installation of asthma framework, reflecting a therapeutic action of the respective compounds analyzed.
The effect of the treatments on bronchial hyperreactivity was investigated by measuring the resistance changes and pulmonary elastance, using invasive barometric plethysmography whole-body system (Buxco, USA), as previously described (Olsen et al., 2012).

Assay [5] deals with A/J mice. Briefly: Ovalbumin asthma model: hyperreactivity, mucus production, peribronchial fibrosis (nebulization). The class given is in vivo. From the text:
Male A/J mice (18-20 g), coming from the Laboratory Animal Breeding Center of Oswaldo Cruz Foundation, were used in the experiments. The sensitization procedures, antigen challenge and treatment used in this study followed the experimental protocol shown in FIG. 6. Histological techniques were used for the quantification of mucus and peribronchial fibrosis, following previously reported and validated experimental protocols (Serra et al., 2012).

[6] abbreviates: trachea pre-contracted with carbachol 2.5 μM, mean±SEM.

Read-outs that look alike come from different tables or passages of the source.

The term IC50 denotes the concentration that gives 50% inhibition. The Emax is the size of the effect at its maximum, as opposed to the concentration needed. Take `Cc1cccc(C)c1OCC(C)N` (centres unmarked) [Mexiletine, 2-(2-aminopropoxy)-1,3-dimethylbenzene, reference compound]: the IC50 in assay [1] (GH3 cells, patch clamp, read-out: IC50 for blocking the sodium current) was ~278 µM; in the assay with rat tracheal rings (Rattus norvegicus), 466 µM; in assay [3] (RBL-2H3, 1 h, RBL-2H3, DNP-BSA 10 ng/ml, 60 minutes treatment, read-out: IC50 blocking of anaphylactic mast cell degranulation), 382 µM. Besides, the Emax in the assay on rat tracheal rings (Rattus norvegicus) turned out to be 87.7 ± 4.9%; in assay [3], 100%. Also, in the assay on rat tracheal rings (compound 1000 μM), the “blocking of the muscarinic contraction” value is “about 88%”. Further, the maximum relaxation effect in assay [2] (setting [6]) is given as 40%.
In the case of `NC1=N[C@H](O)[C@H]2[C@H]3O[C@]4(O)O[C@@H]([C@@H](O)[C@@]2(N1)[C@@H]4O)[C@]3(O)CO` [tetrodotoxin], in assay [1] (read-out: IC50 inhibition of sodium current), the IC50 came out at 0.304 µM.
By inhibition is commonly meant the change of the read-out against control, counted positive when it falls. The term EC50 denotes the concentration needed to bring the measured effect to its halfway point. In the case of `Cc1cc(OCC(C)N)cc(C)c1Br.Cl` (centres unmarked) [JME-173], in the assay with rat tracheal rings (Rattus norvegicus), the IC50 was 44.4 µM and the Emax was 97.9 ± 4.7%. Moreover, the inhibition at 100 µM with rat tracheal rings (Rattus norvegicus, compound 100 μM, pre-treatment 10 minutes, read-out: inhibition of the muscarinic contraction) was ~98%. Further, the half-inhibitory concentration (IC50) in the assay with rat tracheal rings came out at 44.3 µM. Further, in assay [2] (Rattus norvegicus, trachea pre-contracted with carbachol 2.5 μM, mean±SEM), the EC50 was found to be 3100 µM. The “times more potent as relaxation inducers than mexiletine” value in assay [2] (pre-contracted trachea) amounted to 47 times. In assay [2] (setting [6]), this compound yielded a maximum relaxation effect of 118%. Besides, the EC50 in the assay on tracheal rings (Rattus norvegicus, ovalbumin 100 μg/ml, 30 minutes pretreatment, read-out: EC50 inhibition of anaphylactic contraction response) came out at 8.3 µM. In addition, in the assay with tracheal rings (compound 30 μM), the “blocking of anaphylactic contraction” value was “completely inhibited”. Also, the Emax in assay [3] is 97%. Moreover, in the assay on A/J mice [4] (nebulization 2%), the “IL-5 generation in lung tissue” value was “blocking”, the “IL-13 generation in lung tissue” value is given as “blocking”, the “eotaxin-2 generation in lung tissue” value is “blocking” and the “increased levels of anti-inflammatory cytokine IL-10” value is recorded as “without change”. The “airway hyperreactivity (lung resistance and elastance after methacholine)” value with A/J mice [4] (nebulization 2% for 30 minutes, OVA sensitized and challenged) is recorded as “abolished”. In addition, the airway hyperreactivity result in the assay with A/J mice [5] (nebulization 0.5%, 1% or 2% for 30 minutes) is “able to block”. Further, in the assay with A/J mice [5] (nebulization 0.5%, PAS staining, quantitative analysis), the “inhibition of mucus production in airways” value is recorded as “about 70%”. Also, the peribronchial fibrotic response entry in the assay with A/J mice [5] (nebulization, Gömöri trichrome, morphometry) was “clearly abolished”.
